# Test results as given in patent publication US12391671B2, “Allosteric EGFR inhibitors and methods of use thereof” (Dana-Farber Cancer Institute, Inc., priority 2019, dated 2025).
# Where a name gives a salt, the structure may show the parent alone. Read-outs that look alike come from different tables or passages of the source.
# Legend:
# [1] = system: EGFR mutant L858R/T790M Ba/F3 cells; test: Ba/F3 cell proliferation model (Cell Titer Glo), EGFR L858R/T790M; assay type: cell-based, murine; conditions: 72 hours
# Description: Example 26: Ba/F3 Cell Proliferation Models
# The EGFR mutant L858R and L858R/T790M Ba/F3 cells have been previously described (Zhou, W., et al. Nature 462, 2009, 1070-1074). All cell lines were maintained in RPM 1640 (Cellgro; Mediatech Inc., Herndon. CA) supplemented with 10% FBS, 100 units/mL penicillin, 100 units/mL streptomycin. The EGFR I941R mutation was introduced via site directed mutagenesis using the Quick Change Site-Directed Mutagenesis kit (Stratagene; La Jolla, CA) according to the manufacturer's instructions. All constructs were confirmed by DNA sequencing. The constructs were shuttled into the retroviral vector JP1540 using the Cre-recombination system (Agilent Technologies, Santa Clara, CA). Ba/F3 cells were then infected with retrovirus per standard protocols, as described previously (Zhou, et al, Nature 2009). Stable clones were obtained by selection in puromycin (2 μg/ml).
# Growth and inhibition of growth was assessed by the Cell Titer Glo® assay (Promega, Madison, WI) and was performed according to the manufacturer's instructions. The Cell Titer Glo® assay is a luminescence-based method used to determine the number of viable cells based on quantitation of the ATP present, which is directly proportional to the amount of metabolically active cells present. Ba/F3 cells of different EGFR genotypes were exposed to compounds as a single agent or in combination with 1 μg/mL cetuximab for 72 hours and the number of cells used per experiment was determined empirically as has been previously established (Zhou, et al., Nature 2009). All experimental points were set up in triplicates in 384-well plates and all experiments were repeated at least three times. […] The curves were fitted using a non-linear regression model with a sigmoidal dose response.
# EGFR L858R/T790M = EGFR L858R/T790M (Homo sapiens (Human), UniProt P00533, L858R/T790M); test: HTRF-based EGFR biochemical assay (L858R/T790M); conditions: 100 μM ATP, enzyme 0.02 nM
# Procedure: (§1) Example 25: HTRF-Based EGFR Biochemical Assays
# (§2) EGFR biochemical activity measurements were carried out using the homogeneous time-resolved fluorescence (HTRF) assay (Cisbio), inhibitors and DMSO normalizations were first dispensed to empty black low-volume 384-well plates (Corning) with 0300 digital liquid dispenser (HP). All reactions were carried out at room temperature and solutions were added to plates with a Multidrop Combi Reagent Dispenser (ThermoFisher). The reaction mixture (10 μL final volume) contained 1 μM tyrosine kinase peptide-biotin substrate and mutant EGFR in a reaction buffer (50 mM HEPES pH 7.0, 5 mM MgCl2, 1 mM MnCl2, 0.01% BSA, 2 mM TCEP, 0.1 mM NaVO4). Enzyme concentrations were adjusted to accommodate varying kinase activities (L858R 0.1 nM, L858R/T790M 0.02 nM). Enzyme reaction solution (2× concentrations, 5 μL) was added to 384-well plates containing compounds and incubated for 30 mins. Enzyme reactions were initiated with the addition of 5 μL of ATP to a final concentration of 100 μM and reacted for 20 mins. Reactions were quenched with the addition of 10 μL of phospho-tyrosine antibody-Europium(III) cryptate (1-to-180 volume ratio) and Streptavidin-XL665 (46.7 nM) in EDTA-containing detection buffer, then incubated at room temperature for 1 hour, and read with a PHERAstar plate reader (excitation=337 nm, emission=620 nm and 665 nm).
# EGFR L858R = EGFR L858R (Homo sapiens (Human), UniProt P00533, L858R); test: HTRF-based EGFR biochemical assay (L858R); conditions: 100 μM ATP, enzyme 0.1 nM
# Procedure: as §1, §2
# [2] = Mus musculus, BaF3, single agent, read-out: Cell IC50 BaF3 EGFR L858R/T790M
# [3] = in combination with 1 μg/mL cetuximab, read-out: Cell IC50 BaF3 EGFR L858R/T790M (+cetux.)
# EGFR L858R/T790M, sequence (P00533 25-1210 T790M/L858R): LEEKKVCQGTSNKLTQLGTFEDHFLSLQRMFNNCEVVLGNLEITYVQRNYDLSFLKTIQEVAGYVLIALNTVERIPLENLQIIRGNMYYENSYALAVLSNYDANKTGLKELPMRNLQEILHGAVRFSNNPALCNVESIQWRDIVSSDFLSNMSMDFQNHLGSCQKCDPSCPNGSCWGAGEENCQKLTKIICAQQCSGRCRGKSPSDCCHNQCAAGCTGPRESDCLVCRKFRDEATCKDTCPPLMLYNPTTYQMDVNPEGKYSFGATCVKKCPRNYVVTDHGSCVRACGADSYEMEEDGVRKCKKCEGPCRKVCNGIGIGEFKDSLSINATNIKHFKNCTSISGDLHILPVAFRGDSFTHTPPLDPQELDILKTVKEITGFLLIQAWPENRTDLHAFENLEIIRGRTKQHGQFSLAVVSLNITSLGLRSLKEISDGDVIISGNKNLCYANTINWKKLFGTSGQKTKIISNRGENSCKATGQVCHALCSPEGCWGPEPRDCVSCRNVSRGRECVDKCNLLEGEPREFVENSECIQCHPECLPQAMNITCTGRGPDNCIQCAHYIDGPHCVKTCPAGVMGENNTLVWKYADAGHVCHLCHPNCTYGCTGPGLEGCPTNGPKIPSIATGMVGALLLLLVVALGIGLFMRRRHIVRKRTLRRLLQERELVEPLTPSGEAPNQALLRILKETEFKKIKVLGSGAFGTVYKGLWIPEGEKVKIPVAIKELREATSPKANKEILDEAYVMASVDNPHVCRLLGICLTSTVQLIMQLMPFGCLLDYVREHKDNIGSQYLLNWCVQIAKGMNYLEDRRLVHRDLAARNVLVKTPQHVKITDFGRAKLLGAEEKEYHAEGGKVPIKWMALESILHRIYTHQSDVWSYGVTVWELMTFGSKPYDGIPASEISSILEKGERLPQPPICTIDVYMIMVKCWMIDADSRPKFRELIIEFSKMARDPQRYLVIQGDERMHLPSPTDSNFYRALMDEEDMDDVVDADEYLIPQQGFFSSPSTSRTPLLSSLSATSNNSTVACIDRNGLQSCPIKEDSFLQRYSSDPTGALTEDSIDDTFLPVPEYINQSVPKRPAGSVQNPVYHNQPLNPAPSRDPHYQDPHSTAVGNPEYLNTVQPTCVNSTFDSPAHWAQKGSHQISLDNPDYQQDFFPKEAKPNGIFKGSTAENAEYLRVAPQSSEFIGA
# EGFR L858R, sequence (P00533 25-1210 L858R): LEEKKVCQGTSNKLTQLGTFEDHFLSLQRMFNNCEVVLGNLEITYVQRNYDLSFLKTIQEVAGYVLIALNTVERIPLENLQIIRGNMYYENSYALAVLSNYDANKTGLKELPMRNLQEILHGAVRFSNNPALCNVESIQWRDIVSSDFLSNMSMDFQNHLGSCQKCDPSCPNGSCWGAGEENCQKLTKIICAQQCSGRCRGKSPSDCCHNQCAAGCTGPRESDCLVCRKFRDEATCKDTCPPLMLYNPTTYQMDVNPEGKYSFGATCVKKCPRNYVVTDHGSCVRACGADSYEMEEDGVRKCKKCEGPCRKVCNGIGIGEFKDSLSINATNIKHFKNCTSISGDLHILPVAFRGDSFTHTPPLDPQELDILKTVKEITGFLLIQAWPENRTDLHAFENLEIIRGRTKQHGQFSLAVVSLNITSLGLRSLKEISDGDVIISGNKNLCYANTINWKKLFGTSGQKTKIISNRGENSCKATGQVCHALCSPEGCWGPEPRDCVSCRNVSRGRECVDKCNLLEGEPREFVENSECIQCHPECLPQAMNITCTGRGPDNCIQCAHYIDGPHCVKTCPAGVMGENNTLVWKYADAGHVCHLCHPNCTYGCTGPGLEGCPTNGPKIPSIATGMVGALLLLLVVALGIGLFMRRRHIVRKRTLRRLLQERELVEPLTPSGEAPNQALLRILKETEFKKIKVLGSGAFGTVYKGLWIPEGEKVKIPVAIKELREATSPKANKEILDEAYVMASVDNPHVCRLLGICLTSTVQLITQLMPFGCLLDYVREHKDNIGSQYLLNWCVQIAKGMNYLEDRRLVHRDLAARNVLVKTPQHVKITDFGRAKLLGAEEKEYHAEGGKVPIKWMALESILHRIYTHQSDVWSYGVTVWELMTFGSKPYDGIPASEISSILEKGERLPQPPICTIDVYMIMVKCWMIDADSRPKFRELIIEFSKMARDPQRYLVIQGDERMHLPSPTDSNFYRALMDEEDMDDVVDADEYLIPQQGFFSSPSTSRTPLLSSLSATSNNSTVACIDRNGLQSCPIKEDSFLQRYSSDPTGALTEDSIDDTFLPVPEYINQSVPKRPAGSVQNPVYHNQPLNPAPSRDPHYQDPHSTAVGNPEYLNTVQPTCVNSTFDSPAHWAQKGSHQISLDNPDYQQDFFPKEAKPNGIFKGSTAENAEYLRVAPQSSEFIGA
SMILES,IC50 (EGFR L858R/T790M),IC50 (EGFR L858R),further results
"[2H][C@@](c1nc2ccccc2[nH]1)(c1cc(F)ccc1O)N1Cc2ccc(-c3ccc(C4CCN(C)CC4)cc3)cc2C1=O (single isomer, unassigned) [Compound 037]",,,"IC50 [1, 2]: 160 nM; IC50 [1, 3]: 4 nM"
"CN1CCC(c2ccc(-c3ccc4c(c3)C(=O)N([C@H](c3nc5ccccc5[nH]3)c3cc(F)ccc3O)C4)cc2)CC1 (single isomer, unassigned) [Compound 037]",0.5 nM,1.4 nM,
"[2H][C@](c1nc2ccccc2[nH]1)(c1cc(F)ccc1O)N1Cc2ccc(-c3ccc(C4CCN(C)CC4)cc3)cc2C1=O (single isomer, unassigned) [Compound 038]",,,"IC50 [1, 2]: 930 nM; IC50 [1, 3]: 41 nM"
"CN1CCC(c2ccc(-c3ccc4c(c3)C(=O)N([C@@H](c3nc5ccccc5[nH]3)c3cc(F)ccc3O)C4)cc2)CC1 (single isomer, unassigned) [Compound 038]",6 nM,18 nM,
"CN1CCC(c2ccc(-c3cc(F)c4c(=O)n([C@H](c5nc6ccccc6[nH]5)c5cc(F)ccc5O)ccc4c3)cc2)CC1 (single isomer, unassigned) [Compound 066]",3 nM,14 nM,
"CN1CCC(c2ccc(-c3ccc4c(=O)n([C@@H](c5nc6ccccc6[nH]5)c5cc(F)ccc5O)ccc4c3)cc2)CC1 (single isomer, unassigned) [Compound 067]",4 nM,11 nM,
"CN1CCC(c2ccc(-c3ccc4c(=O)n([C@H](c5nc6ccccc6[nH]5)c5cc(F)ccc5O)ccc4c3)cc2)CC1 (single isomer, unassigned) [Compound 068]",166 nM,756 nM,
"CN1CCC(c2ccc(-c3ccc4c(c3)C(=S)N([C@H](c3nc5ccccc5[nH]3)c3cc(F)ccc3O)C4)cc2)CC1 (single isomer, unassigned) [Compound 084]",232 nM,219 nM,
"Cc1c[nH]c([C@@H](c2cc(F)ccc2O)N2Cc3ccc(-c4ccc(C5CCN(C)CC5)cc4)c(F)c3C2=O)n1 (single isomer, unassigned) [Compound 94]",2 nM,1 nM,
"Cc1c[nH]c([C@H](c2cc(F)ccc2O)N2Cc3ccc(-c4ccc(C5CCN(C)CC5)cc4)c(F)c3C2=O)n1 (single isomer, unassigned) [Compound 095]",59 nM,92 nM,
"Cc1c[nH]c([C@@H](c2cc(F)ccc2O)N2Cc3ccc(-c4ccc(C5CCN(C)CC5)cc4)cc3C2=O)n1 (single isomer, unassigned) [Compound 104]",2 nM,1 nM,
"Cc1c[nH]c([C@H](c2cc(F)ccc2O)N2Cc3ccc(-c4ccc(C5CCN(C)CC5)cc4)cc3C2=O)n1 (single isomer, unassigned) [Compound 105]",49 nM,65 nM,
"CN1CCC(c2ccc(-c3ccc4c(n3)C(=O)N([C@@H](c3nc5ccccc5[nH]3)c3cc(F)ccc3O)C4)cc2)CC1 (single isomer, unassigned) [Compound 106]",0.8 nM,3 nM,
"CN1CCC(c2ccc(-c3ccc4c(n3)C(=O)N([C@H](c3nc5ccccc5[nH]3)c3cc(F)ccc3O)C4)cc2)CC1 (single isomer, unassigned) [Compound 107]",17 nM,71 nM,
"CN1CCC(c2ccc(-c3ccc4c(=O)n([C@@H](c5nc6ccccc6[nH]5)c5cc(F)ccc5O)ccc4c3)cc2)CC1 (single isomer, unassigned) [Compound 114]",0.9 nM,2 nM,
"CN1CCC(c2ccc(-c3ccc4c(=O)n([C@H](c5nc6ccccc6[nH]5)c5cc(F)ccc5O)ccc4c3)cc2)CC1 (single isomer, unassigned) [Compound 115]",157 nM,132 nM,
"CN1CCC(c2ccc(-c3cc(F)c4c(=O)n([C@@H](c5nc6ccccc6[nH]5)c5cc(F)ccc5O)ccc4c3)cc2)CC1 (single isomer, unassigned) [Compound 116, dihydrochloride]",,,IC50 (EGFR L858R/T790M; dihydrochloride): 0.2 nM; IC50 (EGFR L858R; dihydrochloride): 0.8 nM
"CN1CCC(c2ccc(-c3cc(F)c4c(=O)n([C@H](c5nc6ccccc6[nH]5)c5cc(F)ccc5O)ccc4c3)cc2)CC1 (single isomer, unassigned) [Compound 117, 2-[1H-Benzimidazol-2-yl-(5-fluoro-2-hydroxy-phenyl)methyl-8-fluoro-6-[3-fluoro-4-(1-methyl-4-piperidyl)phenyl]isoquinolin-1-one; dihydrochloride]",,,IC50 (EGFR L858R/T790M; dihydrochloride): 81 nM; IC50 (EGFR L858R; dihydrochloride): > 100 nM
"O=C1c2cc(-c3ccc(N4CCNCC4)cc3)ccc2CN1C(c1nc2ccccc2[nH]1)c1cc(F)ccc1O (stereo not shown) [Compound 021, 2-[1H-Benzimidazol-2-yl-(5-fluoro-2-hydroxy-phenyl)methyl]-6-(4-piperazin-1-yiphenyl)isoindolin-1-one;hydrochioride]",,,"IC50 [1, 2]: 1650 nM; IC50 [1, 3]: 20 nM"
"CN1CCC(c2ccc(-c3ccc4c(c3)C(=O)N(C(c3nc5ccccc5[nH]3)c3cccc(Cl)c3O)C4)cc2)CC1 (stereo not shown) [Compound 043, 2-[1H-benzimidazol-2-yl-(3-chloro-2-hydroxy-phenyl)-methyl]-6-[4-(1-methyl-4-piperidyl)phenyl]isoindolin-1-one; dihydrochloride]",,,"IC50 [1, 2]: 4940 nM; IC50 [1, 3]: 580 nM"
"Cc1cnc(C(c2cc(F)ccc2O)N2Cc3ccc(-c4ccc(C5CCN(C)CC5)cc4)c(F)c3C2=O)[nH]1 (stereo not shown) [Compound 093, 7-Fluoro-2-[(5-fluoro-2-hydroxy-phenyl)-(5-methyl-1H-imidazol-2-yl)methyl]-6-[4-(1-methyl-4-piperidyl)phenyl]isoindolin-1-one]",4 nM,3 nM,
"Cc1c(-c2ccc(C3CCN(C)CC3)cc2)ccc2cn(C(c3nc4ccccc4[nH]3)c3cc(F)ccc3O)nc12 (stereo not shown) [Compound 096, 2-[1H-Benzimidazol-2-yl-[7-methyl-6-[4-(1-methyl-4-piperidyl)phenyl]indazol-2-yl]methyl]-4-fluoro-phenol; dihydrochloride]",0.8 nM,3 nM,
"CN1CCC(c2ccc(-c3cc4nn(C(c5nc6ccccc6[nH]5)c5cc(F)ccc5O)cc4cc3O)cc2)CC1 (stereo not shown) [Compound 097, 2-[1H-Benzimidazol-2-yl-(5-fluoro-2-hydroxy-phenyl)methyl]-6-[4-(1-methyl-4-piperidyl)phenyl]indazol-5-ol]",36 nM,16 nM,
"Cc1cc2cn(C(c3nc4ccccc4[nH]3)c3cc(F)ccc3O)nc2cc1-c1ccc(C2CCN(C)CC2)cc1 (stereo not shown) [Compound 098, 2-[1H-Benzimidazol-2-yl-[5-methyl-6-[4-(1-methyl-4-piperidyl)phenyl]-indazol-2-yl]methyl]-4-fluoro-phenol; dihydrochloride]",4 nM,6 nM,
"COc1cc2cn(C(c3nc4ccccc4[nH]3)c3cc(F)ccc3O)nc2cc1-c1ccc(C2CCN(C)CC2)cc1 (stereo not shown) [Compound 099, 2-[1H-Benzimidazol-2-yl-[5-methoxy-6-[4-(1-methyl-4-piperidyl)phenyl]indazol-2-yl]methyl]-4-fluoro-phenol]",8 nM,10 nM,
"CN1CCC(c2ccc(-c3ccc4cn(C(c5nc6c(F)cccc6[nH]5)c5cc(F)ccc5O)nc4c3F)cc2)CC1 (stereo not shown) [Compound 101, 4-Fluoro-2-((4-fluoro-1H-benzo[d]-imidazol-2-yl)(7-fluoro-6-(4-(1-methylpiperidin-4-yl)phenyl)-2H-indazol-2-yl)methyl)phenol; trifluoroacetate]",0.8 nM,4 nM,
